From US20050238732A1, “Carbonated germicide with pressure control” (priority 2003, published 2005)
Like-named read-outs stand apart in the source and are kept apart here.

What was measured:
Bacillus subtilis spores [1] = experiment: Spore suspension test, killing of Bacillus subtilis spores; assay type: cell-based; conditions: for Log Reduction/mL (3 hr, 20° C., pH = 8): Table 4B; for Log Reduction/mL (20° C., 4 hrs): [NaHCO3], 0 mM
[2] = CO2 in headspace
Method: (§1) Experiments were conducted to determine the pressures of several bicarbonate solutions with different bicarbonate concentration, starting pH, and at different temperatures, with air initially in the headspace of the container. Several bicarbonate solutions of different concentration were prepared. The pH of the solutions were adjusted by sparging the solutions with carbon dioxide to achieve a starting pH. About 1030 mL of each solution was introduced into a different 1145 mL glass bottle that was equipped with a thermometer and a pressure sensor. The headspace of each bottle was flushed with air for about one minute and then the bottle was sealed with a stopper. […] The solutions were stirred at about 20° C. until all pressures stabilized. The pressures were recorded. The solutions were then heated in a water bath to 40° C., and then to 55° C., and the pressures were recorded at each of these temperatures. The experiments were conducted at sea level.
Experiments were conducted to determine the pressures of sealed containers including bicarbonate solutions when the air initially present in the headspace of the containers was replaced with carbon dioxide. […] The experiments were conducted at sea level.

[3] = Method: A 100 mL round-bottom flask having a capacity of about 135 mL was equipped with a septum, a stirrer bar, and a pressure sensor. […] About 65 mL of a bicarbonate solution having a particular concentration and pH was injected into the flask. Excess pressure was released through a needle on the septum. Carbon dioxide was sparged through the solution to obtain the listed pH and then the solution was sealed in the container with a stopper. The solution was stirred at a temperature of about 20° C. until a stable pressure was achieved. The procedure was repeated for other air partial pressures and bicarbonate solutions. The experiments were conducted at sea level.
[4] = Air in headspace
Method: as §1

[5] = Storage stability of phthalaldehyde solution (loss by Cannizzaro reaction); assay type: physicochemical; conditions: stored about 11 weeks
Description: Overall, the Cannizzaro reaction generally leads to loss of phthalaldehyde and a decrease in the germicidal efficacy of the solution. While a pH of from 6 to 10, or 7.5 to 9 generally enhances the efficacy of the phthalaldehyde-carbonate solution, the higher or alkaline pH also generally promotes the Cannizzaro reaction. […] However, about 14% of the phthalaldehyde may be lost if the same solution is stored for about 11 weeks at a pH of 9, at room temperature. Even more of the phthalaldehyde may be converted if the storage period is longer, if the temperature is higher, or if the pH is higher than 9.

[6] = cited from earlier work
Bacillus subtilis spores [7] = conditions: cited from earlier work
[8] = system: Clostridium sporogenes spores; conditions: cited from earlier work
[9] = pH range of 3 to 9, single component, per the '999 patent; cited from earlier work
Mycobacterium bovis BCG = conditions: at least 0.25% by weight phthalaldehyde as the sole active ingredient, 20° C.; cited from earlier work
[10] = Table 3, 20° C., 8 hr exposure, no pH control
[11] = Table 3, 20° C., 24 hr exposure, no pH control
[12] = Table 2, 20° C., 4 hr exposure, no pH control
[13] = Table 2, 20° C., 24 hr exposure, no pH control
[14] = Table 1, 20° C., 8 hr exposure, no pH control
[15] = Table 2, 20° C., 8 hr exposure, no pH control
[16] = 0.25% phthalaldehyde as the sole active ingredient, 20° C.

SMILES: [F-].[K+] [1000 mM KF, potassium fluoride]
- Log Reduction/mL (20° C.) 8 hr (Bacillus subtilis spores [1]; [10]): 0.0
- Log Reduction/mL (20° C.) 24 hr (Bacillus subtilis spores [1]; [11]): 0.1
- Log Reduction/mL (3 hr, 20° C., pH = 8) (Bacillus subtilis spores [1]; 20° C.): 0

SMILES: O=C([O-])O.[Na+] [NaHCO3, sodium bicarbonate]
- Pressure Below (−) or Above (+) Atmospheric Pressure (mmHg) 20° C. ([2]; pH 7.2, [NaHCO3] 0.3M): −158 mmHg
- Pressure Below (−) or Above (+) Atmospheric Pressure (mmHg) 40° C. ([2]; pH 7.2, [NaHCO3] 0.3M): 202 mmHg
- Pressure Below (−) or Above (+) Atmospheric Pressure (mmHg) 55° C. ([2]; pH 7.2, [NaHCO3] 0.3M): 532 mmHg
- Pressure Below (−) or Above (+) Atmospheric Pressure (mmHg) 20° C. ([2]; pH 7.3, [NaHCO3] 0.02M): −508 mmHg
- Pressure Below (−) or Above (+) Atmospheric Pressure (mmHg) 40° C. ([2]; pH 7.3, [NaHCO3] 0.02M): −348 mmHg
- Pressure Below (−) or Above (+) Atmospheric Pressure (mmHg) 55° C. ([2]; pH 7.3, [NaHCO3] 0.02M): −202 mmHg
- Pressure Below (−) or Above (+) Atmospheric Pressure (mmHg) 20° C. ([2]; pH 7.4, [NaHCO3] 0.3M): −290 mmHg
- Pressure Below (−) or Above (+) Atmospheric Pressure (mmHg) 40° C. ([2]; pH 7.4, [NaHCO3] 0.3M): 0 mmHg
- Pressure Below (−) or Above (+) Atmospheric Pressure (mmHg) 55° C. ([2]; pH 7.4, [NaHCO3] 0.3M): 274 mmHg
- Pressure Below (−) or Above (+) Atmospheric Pressure (mmHg) 20° C. ([2]; pH 7.8, [NaHCO3] 0.3M): −440 mmHg
- Pressure Below (−) or Above (+) Atmospheric Pressure (mmHg) 40° C. ([2]; pH 7.8, [NaHCO3] 0.3M): −246 mmHg
- Pressure Below (−) or Above (+) Atmospheric Pressure (mmHg) 55° C. ([2]; pH 7.8, [NaHCO3] 0.3M): −50 mmHg
- Final Pressure at Equilibrium (mmHg) ([3]; initial air 440 / CO2 320 mmHg, NaHCO3 0.3 mole/L, pH 7.4, about 20° C.): 758 mmHg
- Final Pressure at Equilibrium (mmHg) ([3]; initial air 674 / CO2 86 mmHg, NaHCO3 0.3 mole/L, pH 8.0, about 20° C.): 760 mmHg
- Final Pressure at Equilibrium (mmHg) ([3]; initial air 726 / CO2 34 mmHg, NaHCO3 0.05 mole/L, pH 8.0, about 20° C.): 756 mmHg
- Final Pressure at Equilibrium (mmHg) ([3]; initial air 740 / CO2 20 mmHg, NaHCO3 0.05 mole/L, pH 7.4, about 20° C.): 758 mmHg
- Pressure Above Atmospheric Pressure (mmHg) 20° C. ([4]; pH 7.3, [NaHCO3] 0.02M): 72 mmHg
- Pressure Above Atmospheric Pressure (mmHg) 40° C. ([4]; pH 7.3, [NaHCO3] 0.02M): 208 mmHg
- Pressure Above Atmospheric Pressure (mmHg) 55° C. ([4]; pH 7.3, [NaHCO3] 0.02M): 378 mmHg
- Pressure Above Atmospheric Pressure (mmHg) 20° C. ([4]; pH 7.4, [NaHCO3] 0.3M): 250 mmHg
- Pressure Above Atmospheric Pressure (mmHg) 40° C. ([4]; pH 7.4, [NaHCO3] 0.3M): 570 mmHg
- Pressure Above Atmospheric Pressure (mmHg) 55° C. ([4]; pH 7.4, [NaHCO3] 0.3M): 862 mmHg
- Pressure Above Atmospheric Pressure (mmHg) 20° C. ([4]; pH 7.8, [NaHCO3] 0.3M): 134 mmHg
- Pressure Above Atmospheric Pressure (mmHg) 40° C. ([4]; pH 7.8, [NaHCO3] 0.3M): 322 mmHg
- Pressure Above Atmospheric Pressure (mmHg) 55° C. ([4]; pH 7.8, [NaHCO3] 0.3M): 542 mmHg

SMILES: [Br-].[Na+] [1000 mM NaBr, sodium bromide]
- Log Reduction/mL (20° C.) 4 hr (Bacillus subtilis spores [1]; [12]): 0.0
- Log Reduction/mL (20° C.) 24 hr (Bacillus subtilis spores [1]; [13]): 0.1

SMILES: [Cl-].[Na+] [1000 mM NaCl, sodium chloride]
- Log Reduction/mL (20° C.) 24 hr (Bacillus subtilis spores [1]; [13]): 0.2

SMILES: [F-].[Na+] [1000 mM NaF, sodium fluoride]
- Log Reduction/mL (20° C.) 8 hr (Bacillus subtilis spores [1]; [14]): 0.0
- Log Reduction/mL (20° C.) 8 hr (Bacillus subtilis spores [1]; [15]): 0.0
- Log Reduction/mL (20° C.) 24 hr (Bacillus subtilis spores [1]; [13]): 0.0

SMILES: O=Cc1ccccc1C=O [0.3% OPA, 1,2-benzenedicarboxaldehyde]
- loss of phthalaldehyde on storage ([5]; pH of 7 or lower, room temperature to about 40° C.): without a noticeable loss
- phthalaldehyde lost on storage ([5]; pH of 9, room temperature): about 14%
- solubility in water [6]: about 5 % by weight
- time for sporicidal activity (Bacillus subtilis spores [7]; [16]): 24 h
- time in which sterilization is achieved (Bacillus subtilis spores [7]; 1.0% phthalaldehyde): 10 h
- time for sporicidal activity [8, 16]: 24 h
- time in which sterilization is achieved ([8]; 1.0% phthalaldehyde): 10 h
- stability of compositions containing phthalaldehyde [9]: excellent stability
- time to kill all Mycobacterium bovis BCG in contact with the composition (Mycobacterium bovis BCG): ≤ 10 min
- Log Reduction/mL (20° C.) 4 hr (Bacillus subtilis spores [1]; Table 1, 20° C., 4 hr exposure, no pH control): 0.5
- Log Reduction/mL (20° C.) 8 hr (Bacillus subtilis spores [1]; [14]): 0.6
- Log Reduction/mL (20° C.) 24 hr (Bacillus subtilis spores [1]; Table 1, 20° C., 24 hr exposure, no pH control): 2.9
- Log Reduction/mL (20° C.) 8 hr (Bacillus subtilis spores [1]; [15]): ~0.6
- Log Reduction/mL (20° C.) 8 hr (Bacillus subtilis spores [1]; [10]): ~0.6
- Log Reduction/mL (20° C.) 24 hr (Bacillus subtilis spores [1]; [11]): ~2.9
- Log Reduction/mL (20° C.) 4 hr (Bacillus subtilis spores [1]; Table 4A, pH 7.0, 20° C., 4 hr): 0.5
- Log Reduction/mL (20° C.) 8 hr (Bacillus subtilis spores [1]; Table 4A, pH 7.0, 20° C., 8 hr): 0.6
- Log Reduction/mL (20° C.) 24 hr (Bacillus subtilis spores [1]; Table 4A, pH 7.0, 20° C., 24 hr): 2.9
- Log Reductions/mL (20° C.) 2 hr (Bacillus subtilis spores [1]; Table 7, 20° C., 2 hr): 0.4
- Log Reductions/mL (20° C.) 4 hr (Bacillus subtilis spores [1]; Table 7, 20° C., 4 hr): 0.5
- Log Reductions/mL (20° C.) 6 hr (Bacillus subtilis spores [1]; Table 7, 20° C., 6 hr): 0.7
- Log Reductions/mL (20° C.) 8 hr (Bacillus subtilis spores [1]; Table 7, 20° C., 8 hr): 0.6
- Log Reductions/mL (20° C.) 24 hr (Bacillus subtilis spores [1]; Table 7, 20° C., 24 hr): 2.9
- Log Reductions/mL (20° C.) 4 hr (Bacillus subtilis spores [1]; Table 10, 20° C., 4 hr): 1.5
- Log Reductions/mL (20° C.) 24 hr (Bacillus subtilis spores [1]; Table 10, 20° C., 24 hr): 2.9
- Log Reduction/mL (20° C., 4 hrs) (Bacillus subtilis spores [1]; Table 13, 20° C.): 0.5
- Log Reduction/mL (20° C., 4 hrs) (Bacillus subtilis spores [1]; Table 14, 20° C.): 0.5
- Log Reduction/mL (20° C., 4 hrs) (Bacillus subtilis spores [1]; Table 15, 20° C.): 0.5

SMILES: [F-].[Li+] [100 mM LiF, lithium fluoride]
- Log Reduction/mL (20° C.) 24 hr (Bacillus subtilis spores [1]; [11]): 0.0

SMILES: [I-].[Na+] [1000 mM Nal, sodium iodide]
- Log Reduction/mL (20° C.) 4 hr (Bacillus subtilis spores [1]; [12]): 0.0
- Log Reduction/mL (20° C.) 8 hr (Bacillus subtilis spores [1]; [15]): 0.0
- Log Reduction/mL (20° C.) 24 hr (Bacillus subtilis spores [1]; [13]): 0.1

SMILES: [I-].[K+] [1000 mM KI, potassium iodide]
- Log Reduction/mL (3 hr, 20° C., pH = 8) (Bacillus subtilis spores [1]; 20° C.): 0
